The target in assay [1] is T1, phosphoethanolamine methyltransferase, PfPMT (Plasmodium falciparum, UniProt Q8IDQ9).
T1 construct: gene PMT; recombinant 6His-tagged PfPMT (266 residues), 15N-labeled for NMR
Nature of the assay: 1H-15N HSQC NMR titration; also inhibition of purified enzyme in coupled assay. It counts as binding.

In assay [2] the target is T2, phosphoethanolamine methyltransferase, PfPMT (Plasmodium falciparum, UniProt Q8IDQ9).
T2 sequence (Q8IDQ9 1-266): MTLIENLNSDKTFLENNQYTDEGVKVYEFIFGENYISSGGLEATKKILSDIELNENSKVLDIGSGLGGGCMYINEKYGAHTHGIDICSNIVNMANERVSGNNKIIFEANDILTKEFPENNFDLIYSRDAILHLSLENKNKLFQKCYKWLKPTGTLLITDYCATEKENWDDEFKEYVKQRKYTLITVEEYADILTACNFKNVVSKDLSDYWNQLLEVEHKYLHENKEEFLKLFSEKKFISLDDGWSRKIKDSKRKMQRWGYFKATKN
Nature of the assay: 1H-15N HSQC NMR titration (weak; no enzyme inhibition at […]). It counts as binding. Also noted: gene PMT; recombinant 6His-tagged PfPMT, 15N-labeled for NMR.

Assay [3] addresses T2, phosphoethanolamine methyltransferase, PfPMT. Nature of the assay: enzyme-coupled spectrophotometric methyltransferase assay. It counts as biochemical. Also noted: gene PMT; recombinant purified PfPMT (pET-15b).
For assay [4] the target is unchanged. Nature of the assay: enzyme-coupled assay, substrate turnover by purified enzyme. It counts as biochemical. Also noted: gene PMT; recombinant purified PfPMT (pET-15b).
Assay [5] has the same target. Nature of the assay: enzyme-coupled assay, co-substrate turnover by purified enzyme. It counts as biochemical. Also noted: gene PMT; recombinant purified PfPMT (pET-15b).

The values below come from publication PMC2824672, “Identification of inhibitors of Plasmodium falciparum phosphoethanolamine methyltransferase using an enzyme-coupled transmethylation assay” (2010).

What is called inhibition is the share of the control response that was lost under treatment. In turn, `CCN(CC)Cc1cc(Nc2ccnc3cc(Cl)ccc23)ccc1O` [AQ, amodiaquine] had an inhibition at 5 µM in assay [1] of 60%.

With `CCN(CC)CCCC(C)Nc1ccnc2cc(Cl)ccc12` (stereo not shown) [CQ, chloroquine], the “1H-15N HSQC NMR titration (weak; no enzyme inhibition at 200 μM)” value in assay [2] is reported as “indicating site-specific binding, the affinity of CQ for PfPMT is much lower than that of AQ”.

Turning to `CCCCCCCCCCCC[N+](C)(C)C` [DDTA, Dodecyltrimethylammonium bromide], the inhibition at 500 µM in assay [3] amounted to 25%.

Turning to `CCCCCCCCCCCCCCCC[N+](C)(C)C` [HDTA, Hexadecyltrimethylammonium bromide], the inhibition at 100 µM in assay [3] is roughly 50%.

Consider `CCCCCCCCCCCCCCCCOP(=O)([O-])OCC[N+](C)(C)C` [HePC, Miltefosine], for which the inhibition at 100 µM in assay [3] was roughly 60%.

`NCCOP(=O)(O)O` [P-EA, phosphoethanolamine]: in assay [4], the “enzyme-coupled assay, substrate turnover by purified enzyme” value is on record as “PfPMT activity increased proportionally to the concentration of these substrates”.

`C[S+](CC[C@H](N)C(=O)[O-])C[C@H]1O[C@@H](n2cnc3c(N)ncnc32)[C@H](O)[C@@H]1O` (stereo partly shown) [SAM, S-adenosylmethionine]: the “enzyme-coupled assay, co-substrate turnover by purified enzyme” value in assay [5] was “The effect of increasing concentrations of the substrate P-EA and co-substrate SAM on PfPMT activity was also measured”.
